“Also recorded” adds a separate entry of the source.
Experiments:
Raw264.7 cells = test: sphingosine and ceramide levels in RAW264.7 cells; assay type: cell-based, mouse; settings: 0.1-20 μM, 3 hours
Method: Specifically it is reported the concentration response of compound of Example 25 or vehicle (0.1% DMSO in DMEM) on AC activity and ceramide levels in RAW264.7 murine cell line. (A) Intact cells were treated with compound of Example 25 (0.1-20 μM) or vehicle and AC activity was measured 3 hours later in cell lysates. (B-E) Intact cells were exposed to compound of Example 25 (0.1-20 μM) for 3 hours and sphingosine/sphinganine (B), dihydroceramides (C), medium chain ceramides (D), long chain ceramides (E) were quantified. Results are expressed as mean±s.e.m. (n=3). *p<0.05, **p<0.01, ***p<0.001 vs vehicle, two-way ANOVA followed by Dunnet.
Lipids were extracted from mouse tissue lysate with a chloroform/MeOH mixture (2:1 v/v, 3 mL) containing internal standards. The organic phase was collected, dried under nitrogen, and dissolved in chloroform/MeOH (1:3 v/v) for LC-MS analyses. Ceramides, sphingosine and sphinganine were analyzed by LC-MS/MS, using a Waters Acquity UPLC coupled with a Waters Xevo TQMS and interfaced with ESI. […]
Tissue-derived sphingosine and sphinganine were identified by comparison of their LC retention times and MS^2 fragmentation patterns with those of authentic standards (Avanti Polar Lipids). Extracted ion chromatograms were used to quantify sphingosine ([…], m/z 300.5>282.5) and sphinganine standard (C18:0, m/z 303>285). […]

[1] = system: MAG-hydrolyzing enzymes including MGL, HSL and EL; test: MAG-hydrolysing activity ex vivo in mice; design: species or system mouse; settings: 10 mg-kg^−1 intraperitoneal, 3 h after injection
Method: Compound of Example 25 was also tested for its ability to inhibit the hydrolytic degradation of diacylglycerols (DAG) and monoacylglycerols (MAG) in live mice. DAG and MAG hydrolysis is catalyzed by multiple serine lipases, including diacylglycerol lipase (DGL), monoacylglycerol lipase (MGL), hormone-sensitive lipase (HSL), and endothelial lipase. Thus, by monitoring the effects of compound of Example 25 on MAG-hydrolysing activity as well as DAG and MAG levels ex vivo, we can gain important insights as to the ability of the compound to interfere with those lipases in a physiologically relevant setting.
Specifically FIG. 8 evidences the effect of Example 25 or vehicle (DMSO) on MGL activity in brain, liver, fat and heart. MAG-hydrolysing activity was measured 3 h after intraperitoneal injection of compound of Example 25 (10 mg-kg-1). Results are expressed as mean±s.e.m. (n=5).
Tissue was homogenized in ice-cold Tris-HCl (50 mM, pH7.5, 10 vol) containing sucrose (0.32 M). Homogenates were centrifuged at 1,000×g for 10 min, and the supernatants (5 μg of protein) were incubated at 37° C. for 30 min in Tris.HCl (50 mM, pH 7.5, 0.5 mL) containing 10 μM oleoylglycerol (Sigma-Aldrich, St. Louis, Mo.). […] The residues were suspended in 100 μL of chloroform/methanol (1:3, v:v) and analyzed by LC-MS.

PLC = test: Cerep enzyme inhibition screen: PLC; assay type: biochemical; settings: mean of two determinations
Description: Compound of Example 25 falling in both Formula (I) and (Ia) was selected to be tested for off-target effects on a set of enzymes that include proteases (aspartic, cysteine, and serine), cyclooxygenases as well as lipoxygenases and group IV phospholipase (sPLA2) (Table 3).

O=C(NCCCCc1ccccc1)n1c(=O)oc2cc(-c3ccc(F)cc3)ccc21 [Example 25, 6-(4-Fluorophenyl)-2-oxo-N-(4-phenylbutyl)-1,3-benzoxazole-3-carboxamide]
di-hydro ceramides and ceramide species levels (Raw264.7 cells): intracellular accumulation of various di-hydro ceramides and ceramide species
sphingosine levels (Raw264.7 cells): parallel decrease in sphingosine levels
MAG-hydrolysing activity in brain, liver, fat and heart [1]: did not cause inhibition of MAG-hydrolysing activity; also recorded: no inhibitory activity
Inhibitory activity (% Inh. at 10 μM), mean (PLC): −19.7%
